How the values were obtained:
Assay in all cases: relative viability (nuclei count vs DMSO), 5 days (fraction); higher = more cells survive
LCLC-103H = system: LCLC-103H
In short: (§1)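 Lung cancer cell lines in 1536-well plates got either a single drug or a fixed anchor-drug dose together with five library-drug doses (not always all listed) in √10 steps, by pin tool, on the day after seeding. Nuclei were counted after 5 days, and relative viability is the treated-to-vehicle ratio of nuclei counts. Values are medians of duplicate plates.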

HCC-827 = system: HCC-827
In short: as §1

HCC-44 = system: HCC-44
In short: as §1

NCI-H1944 = system: NCI-H1944
In short: as §1

NCI-H1666 = system: NCI-H1666
In short: as §1

ABC-1 = system: ABC-1
In short: as §1

LXF-289 = system: LXF-289
In short: as §1

CAL-12T = system: CAL-12T
In short: as §1

RERF-LC-KJ = system: RERF-LC-KJ
In short: as §1

NCI-H1793 = system: NCI-H1793
In short: as §1

NCI-H1755 = system: NCI-H1755
In short: as §1

SK-LU-1 = system: SK-LU-1
In short: as §1

NCI-H1395 = system: NCI-H1395
In short: as §1

LU99A = system: LU99A
In short: as §1

NCI-H2126 = system: NCI-H2126
In short: as §1

NCI-H2347 = system: NCI-H2347
In short: as §1

NCI-H3122 = system: NCI-H3122
In short: as §1

NCI-H1792 = system: NCI-H1792
In short: as §1

NCI-H322M = system: NCI-H322M
In short: as §1

NCI-H358 = system: NCI-H358
In short: as §1

NCI-H520 = system: NCI-H520
In short: as §1

ChaGo-K-1 = system: ChaGo-K-1
In short: as §1

CCNC(=O)c1noc(-c2cc(C(C)C)c(O)cc2O)c1-c1ccc(CN2CCOCC2)cc1 [Luminespib] + COc1cccc2cc(-c3nc([C@H]4CC[C@H](C(=O)O)CC4)n4ncnc(N)c34)[nH]c12 [OSI-027] (partner 0.5 µM)
relative viability (LCLC-103H; first compound 0.002 µM): 0.457 | relative viability (LCLC-103H; first compound 0.006325 µM): 0.471 | relative viability (LCLC-103H; first compound 0.02 µM): 0.35 | relative viability (LCLC-103H; first compound 0.06325 µM): 0.503 | relative viability (LCLC-103H; first compound 0.2 µM): 0.383 | relative viability (HCC-827; first compound 0.002 µM): 0.795 | relative viability (HCC-827; first compound 0.006325 µM): 0.725 | relative viability (HCC-827; first compound 0.02 µM): 0.543 | relative viability (HCC-827; first compound 0.06325 µM): 0.354 | relative viability (HCC-827; first compound 0.2 µM): 0.126 | relative viability (HCC-44; first compound 0.002 µM): 0.484 | relative viability (HCC-44; first compound 0.006325 µM): 0.554 | relative viability (HCC-44; first compound 0.02 µM): 0.483 | relative viability (HCC-44; first compound 0.06325 µM): 0.135 | relative viability (HCC-44; first compound 0.2 µM): 0.139 | relative viability (NCI-H1944; first compound 0.002 µM): 0.422 | relative viability (NCI-H1944; first compound 0.006325 µM): 0.359 | relative viability (NCI-H1944; first compound 0.02 µM): 0.365 | relative viability (NCI-H1944; first compound 0.06325 µM): 0.215 | relative viability (NCI-H1944; first compound 0.2 µM): 0.152 | relative viability (NCI-H1666; first compound 0.002 µM): 0.841 | relative viability (NCI-H1666; first compound 0.006325 µM): 0.801 | relative viability (NCI-H1666; first compound 0.02 µM): 0.853 | relative viability (NCI-H1666; first compound 0.06325 µM): 0.81 | relative viability (NCI-H1666; first compound 0.2 µM): 0.791 | relative viability (ABC-1; first compound 0.002 µM): 0.532 | relative viability (ABC-1; first compound 0.006325 µM): 0.476 | relative viability (ABC-1; first compound 0.02 µM): 0.312 | relative viability (ABC-1; first compound 0.06325 µM): 0.195 | relative viability (ABC-1; first compound 0.2 µM): 0.186 | relative viability (LXF-289; first compound 0.002 µM): 0.751 | relative viability (LXF-289; first compound 0.006325 µM): 0.762 | relative viability (LXF-289; first compound 0.02 µM): 0.759 | relative viability (LXF-289; first compound 0.06325 µM): 0.163 | relative viability (LXF-289; first compound 0.2 µM): 0.0755 | relative viability (CAL-12T; first compound 0.002 µM): 0.799 | relative viability (CAL-12T; first compound 0.006325 µM): 0.63 | relative viability (CAL-12T; first compound 0.02 µM): 0.21 | relative viability (CAL-12T; first compound 0.06325 µM): 0.0898 | relative viability (CAL-12T; first compound 0.2 µM): 0.0995 | relative viability (RERF-LC-KJ; first compound 0.002 µM): 0.584 | relative viability (RERF-LC-KJ; first compound 0.006325 µM): 0.536 | relative viability (RERF-LC-KJ; first compound 0.02 µM): 0.346 | relative viability (RERF-LC-KJ; first compound 0.06325 µM): 0.207 | relative viability (RERF-LC-KJ; first compound 0.2 µM): 0.195 | relative viability (NCI-H1793; first compound 0.002 µM): 0.257 | relative viability (NCI-H1793; first compound 0.006325 µM): 0.246 | relative viability (NCI-H1793; first compound 0.02 µM): 0.199 | relative viability (NCI-H1793; first compound 0.06325 µM): 0.125 | relative viability (NCI-H1793; first compound 0.2 µM): 0.112 | relative viability (NCI-H1755; first compound 0.002 µM): 0.768 | relative viability (NCI-H1755; first compound 0.006325 µM): 0.707 | relative viability (NCI-H1755; first compound 0.02 µM): 0.626 | relative viability (NCI-H1755; first compound 0.06325 µM): 0.206 | relative viability (NCI-H1755; first compound 0.2 µM): 0.113 | relative viability (SK-LU-1; first compound 0.002 µM): 0.356 | relative viability (SK-LU-1; first compound 0.006325 µM): 0.201 | relative viability (SK-LU-1; first compound 0.02 µM): 0.136 | relative viability (SK-LU-1; first compound 0.06325 µM): 0.0733 | relative viability (SK-LU-1; first compound 0.2 µM): 0.0594 | relative viability (NCI-H1395; first compound 0.002 µM): 0.704 | relative viability (NCI-H1395; first compound 0.006325 µM): 0.632 | relative viability (NCI-H1395; first compound 0.02 µM): 0.512 | relative viability (NCI-H1395; first compound 0.06325 µM): 0.337 | relative viability (NCI-H1395; first compound 0.2 µM): 0.321 | relative viability (LU99A; first compound 0.002 µM): 0.274 | relative viability (LU99A; first compound 0.006325 µM): 0.265 | relative viability (LU99A; first compound 0.02 µM): 0.265 | relative viability (LU99A; first compound 0.06325 µM): 0.154 | relative viability (LU99A; first compound 0.2 µM): 0.162 | relative viability (NCI-H2126; first compound 0.002 µM): 0.72 | relative viability (NCI-H2126; first compound 0.006325 µM): 0.651 | relative viability (NCI-H2126; first compound 0.02 µM): 0.533 | relative viability (NCI-H2126; first compound 0.06325 µM): 0.226 | relative viability (NCI-H2126; first compound 0.2 µM): 0.223 | relative viability (NCI-H2347; first compound 0.002 µM): 0.414 | relative viability (NCI-H2347; first compound 0.006325 µM): 0.355 | relative viability (NCI-H2347; first compound 0.02 µM): 0.41 | relative viability (NCI-H2347; first compound 0.06325 µM): 0.185 | relative viability (NCI-H2347; first compound 0.2 µM): 0.227 | relative viability (NCI-H3122; first compound 0.002 µM): 1.01 | relative viability (NCI-H3122; first compound 0.006325 µM): 0.787 | relative viability (NCI-H3122; first compound 0.02 µM): 0.142 | relative viability (NCI-H3122; first compound 0.06325 µM): 0.114 | relative viability (NCI-H3122; first compound 0.2 µM): 0.105 | relative viability (NCI-H1792; first compound 0.002 µM): 0.637 | relative viability (NCI-H1792; first compound 0.006325 µM): 0.618 | relative viability (NCI-H1792; first compound 0.02 µM): 0.509 | relative viability (NCI-H1792; first compound 0.06325 µM): 0.26 | relative viability (NCI-H1792; first compound 0.2 µM): 0.229 | relative viability (NCI-H322M; first compound 0.002 µM): 0.564 | relative viability (NCI-H322M; first compound 0.006325 µM): 0.503 | relative viability (NCI-H322M; first compound 0.02 µM): 0.467 | relative viability (NCI-H322M; first compound 0.06325 µM): 0.278 | relative viability (NCI-H322M; first compound 0.2 µM): 0.312 | relative viability (NCI-H358; first compound 0.002 µM): 0.9 | relative viability (NCI-H358; first compound 0.006325 µM): 0.747 | relative viability (NCI-H358; first compound 0.02 µM): 0.362 | relative viability (NCI-H358; first compound 0.06325 µM): 0.0472 | relative viability (NCI-H358; first compound 0.2 µM): 0.0538 | relative viability (NCI-H520; first compound 0.002 µM): 0.247 | relative viability (NCI-H520; first compound 0.006325 µM): 0.27 | relative viability (NCI-H520; first compound 0.02 µM): 0.231 | relative viability (NCI-H520; first compound 0.06325 µM): 0.159 | relative viability (NCI-H520; first compound 0.2 µM): 0.158 | relative viability (ChaGo-K-1; first compound 0.002 µM): 0.562 | relative viability (ChaGo-K-1; first compound 0.006325 µM): 0.612 | relative viability (ChaGo-K-1; first compound 0.02 µM): 0.525 | relative viability (ChaGo-K-1; first compound 0.06325 µM): 0.199 | relative viability (ChaGo-K-1; first compound 0.2 µM): 0.161

From the supplement of paper PMC10307832
